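Protocol summary: plate cells (96-well), add compound at 5 concentrations, incubate 48 h, interpolate endpoints linearly. GI50 marks 50% less growth.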 The source made the active and inactive calls. Cut-off read from the data, not from the text of the source: active = GI50 up to about 1.1 µM and inactive = higher.
What was measured:
Assay in all cases: NCI-60 cell line screen, 48 h
RXF 393 = system: RXF 393
T47D = system: T47D
LOX IMVI = system: LOX IMVI
RPMI-8226 = system: RPMI-8226
MDA-MB-231 = system: MDA-MB-231
KM12 = system: KM12
HL-60 = system: HL-60
MOLT-4 = system: MOLT-4
CAKI-1 = system: CAKI-1
A549 = system: A549
OVCAR-4 = system: OVCAR-4
NCI-H226 = system: NCI-H226
IGROV-1 = system: IGROV-1
SNB-19 = system: SNB-19
EKVX = system: EKVX
SN12C = system: SN12C
MDA-N = system: MDA-N
SNB-75 = system: SNB-75
HCT-15 = system: HCT-15
DU-145 = system: DU-145

Measured: GI50

CC1CCc2c(c(CC3CC(=O)NC(=O)C3)nn2-c2ccccc2)C1 (stereo not given)
> 100 µM: HCT-15
inactive: RXF 393 > 100 µM | T47D > 100 µM | LOX IMVI > 100 µM | RPMI-8226 80.5 µM | MDA-MB-231 > 100 µM | KM12 > 100 µM | HL-60 > 100 µM | MOLT-4 > 100 µM | CAKI-1 > 100 µM | A549 > 100 µM | OVCAR-4 > 100 µM | NCI-H226 > 100 µM | IGROV-1 > 100 µM | SNB-19 > 100 µM | EKVX > 100 µM | SN12C > 100 µM | MDA-N > 100 µM | SNB-75 > 100 µM | DU-145 > 100 µM

COc1ccc2oc(=N)c(C(=O)NCc3ccccc3)cc2c1
inactive: RXF 393 16.8 µM | T47D 15 µM | LOX IMVI 38.6 µM | RPMI-8226 45 µM | MDA-MB-231 23.3 µM | KM12 13.3 µM | HL-60 > 100 µM | MOLT-4 46.3 µM | CAKI-1 34.6 µM | A549 34 µM | OVCAR-4 34.8 µM | NCI-H226 22.7 µM | IGROV-1 19.9 µM | SNB-19 27.4 µM | EKVX 31.2 µM | SN12C 32.2 µM | MDA-N 19.8 µM | SNB-75 15.3 µM | DU-145 24.3 µM
21.1 µM: HCT-15

N#Cc1c(-c2ccccc2)c(/N=N/c2ccc(F)cc2)c(=O)n2c1[nH]c1ccccc12
active: RPMI-8226 0.708 µM
3.33 µM: HCT-15
inactive: RXF 393 10.4 µM | T47D 4.05 µM | LOX IMVI 9.35 µM | MDA-MB-231 5.21 µM | KM12 3.15 µM | HL-60 1.46 µM | MOLT-4 2.3 µM | CAKI-1 3.92 µM | A549 3.08 µM | OVCAR-4 4.09 µM | NCI-H226 7.28 µM | IGROV-1 2.69 µM | SNB-19 5.05 µM | EKVX 2.45 µM | SN12C 1.84 µM | MDA-N 4.17 µM | SNB-75 13.2 µM | DU-145 4.48 µM

COC(=O)CNC(=O)CCC(C)[C@H]1CCC2C3C(C[C@H](OC(C)=O)[C@@]21C)[C@@]1(C)CCC2(C[C@H]1C[C@H]3OC(C)=O)OOC1(CC[C@]3(C)C4C[C@H](OC(C)=O)[C@@]5(C)C(CC[C@@H]5C(C)CCC(=O)NCC(=O)OC)C4[C@H](OC(C)=O)C[C@@H]3C1)OO2 (stereo not given in full)
active: RXF 393 0.931 µM | LOX IMVI 0.962 µM | RPMI-8226 0.309 µM | HL-60 1.11 µM | MOLT-4 0.163 µM | A549 0.914 µM | NCI-H226 1.12 µM | IGROV-1 0.836 µM | EKVX 0.993 µM | SN12C 0.802 µM | DU-145 0.933 µM
inactive: T47D 2.6 µM | MDA-MB-231 1.31 µM | KM12 3.98 µM | CAKI-1 2.15 µM | OVCAR-4 4.9 µM | SNB-19 37.2 µM | MDA-N 3.44 µM | SNB-75 1.64 µM
1.33 µM: HCT-15

Nc1ccc2[nH]c(C(=O)N3CC(CCl)c4c3cc(N)c3ccccc43)cc2c1 (stereo not given)
< 0.01 µM: HCT-15
active: RXF 393 < 0.01 µM | T47D 0.0119 µM | LOX IMVI < 0.01 µM | RPMI-8226 < 0.0108 µM | MDA-MB-231 < 0.0208 µM | KM12 0.0114 µM | HL-60 < 0.01 µM | MOLT-4 < 0.01 µM | CAKI-1 < 0.01 µM | A549 < 0.01 µM | OVCAR-4 < 0.01 µM | NCI-H226 0.0105 µM | IGROV-1 < 0.01 µM | SNB-19 < 0.0138 µM | EKVX < 0.01 µM | SN12C < 0.01 µM | MDA-N < 0.01 µM | SNB-75 < 0.01 µM | DU-145 < 0.01 µM

C=CC(c1ccccc1)[C@@]1(OC(C)=O)C(=O)C(=O)OC1C1COC(C)(C)O1 (stereo not given in full)
inactive: RXF 393 4.68 µM | T47D 13.2 µM | LOX IMVI 4.16 µM | RPMI-8226 5.79 µM | MDA-MB-231 14.4 µM | KM12 15.2 µM | HL-60 2.11 µM | MOLT-4 3.7 µM | CAKI-1 4.72 µM | A549 18 µM | OVCAR-4 14.9 µM | NCI-H226 17.2 µM | IGROV-1 15.3 µM | SNB-19 19.5 µM | EKVX 17.9 µM | SN12C 7.66 µM | MDA-N 10.4 µM | SNB-75 14.5 µM | DU-145 21.2 µM
9.62 µM: HCT-15

O=C(N/N=C\c1ccc([N+](=O)[O-])cc1)Nc1cccc2ccccc12
inactive: RXF 393 11 µM | T47D > 23.1 µM | LOX IMVI 22.5 µM | RPMI-8226 > 100 µM | MDA-MB-231 14.1 µM | KM12 > 29.7 µM | HL-60 > 31.6 µM | MOLT-4 > 100 µM | CAKI-1 15.3 µM | A549 > 49.9 µM | OVCAR-4 > 25.9 µM | NCI-H226 17.7 µM | IGROV-1 > 63.2 µM | SNB-19 5.07 µM | EKVX 29.1 µM | SN12C 48.9 µM | MDA-N > 100 µM | SNB-75 3.23 µM | DU-145 24.9 µM
> 50.5 µM: HCT-15

Fc1cc(-c2cc(-c3ccccc3)n[nH]2)c(Cl)cc1Cl
> 100 µM: HCT-15
inactive: RXF 393 > 100 µM | T47D > 100 µM | LOX IMVI 99.1 µM | RPMI-8226 30.9 µM | MDA-MB-231 55.5 µM | KM12 > 100 µM | HL-60 28.9 µM | MOLT-4 16.9 µM | CAKI-1 > 100 µM | A549 > 100 µM | OVCAR-4 > 100 µM | NCI-H226 50.7 µM | IGROV-1 1.77 µM | SNB-19 > 100 µM | EKVX 61.7 µM | SN12C > 100 µM | MDA-N > 100 µM | SNB-75 > 100 µM | DU-145 > 100 µM

CCCCCCCCCCCCCCCCCCNC(=O)OCC(CNS(=O)(=O)CCC[n+]1cccc2ccccc21)COC (stereo not given)
active: MOLT-4 1.11 µM | NCI-H226 1.05 µM
23.7 µM: HCT-15
inactive: RXF 393 4.99 µM | T47D 3.88 µM | LOX IMVI 2.01 µM | RPMI-8226 1.37 µM | MDA-MB-231 1.82 µM | KM12 1.84 µM | HL-60 1.23 µM | CAKI-1 7.82 µM | A549 1.47 µM | OVCAR-4 1.31 µM | IGROV-1 1.17 µM | SNB-19 1.4 µM | EKVX 17.7 µM | SN12C 1.56 µM | MDA-N 1.81 µM | SNB-75 2.47 µM | DU-145 12.4 µM

COC(OC)C1OC(CO)C(n2cc(F)c(=O)[nH]c2=O)C1O (stereo not given)
inactive: RXF 393 > 100 µM | T47D 25.4 µM | LOX IMVI > 100 µM | RPMI-8226 > 100 µM | MDA-MB-231 > 100 µM | KM12 > 100 µM | HL-60 > 100 µM | MOLT-4 > 100 µM | CAKI-1 > 100 µM | A549 > 100 µM | OVCAR-4 > 100 µM | NCI-H226 > 100 µM | IGROV-1 > 100 µM | SNB-19 > 100 µM | EKVX > 100 µM | SN12C > 100 µM | MDA-N > 100 µM | SNB-75 > 100 µM | DU-145 21.4 µM
> 100 µM: HCT-15

C=CCN1C(=O)/C(=C/c2ccco2)N=C1SC/C=C/C
inactive: RXF 393 29.2 µM | T47D 43.6 µM | LOX IMVI 26.5 µM | RPMI-8226 28 µM | MDA-MB-231 67.9 µM | KM12 39.6 µM | HL-60 28.2 µM | MOLT-4 19.5 µM | CAKI-1 90.8 µM | A549 49.3 µM | OVCAR-4 60.5 µM | NCI-H226 > 100 µM | IGROV-1 51.2 µM | SNB-19 71.3 µM | EKVX 37.7 µM | SN12C 23.5 µM | MDA-N 21.7 µM | SNB-75 33.8 µM | DU-145 > 100 µM
35.7 µM: HCT-15

c1c[nH]c(C23C4C5C6C4C2C6C53)n1 (stereo not given)
inactive: RXF 393 > 100 µM | T47D > 100 µM | LOX IMVI > 100 µM | RPMI-8226 > 100 µM | MDA-MB-231 > 100 µM | KM12 > 100 µM | HL-60 > 100 µM | MOLT-4 > 100 µM | CAKI-1 > 100 µM | A549 > 100 µM | OVCAR-4 30.6 µM | NCI-H226 > 100 µM | IGROV-1 > 100 µM | SNB-19 > 100 µM | EKVX > 100 µM | SN12C > 100 µM | MDA-N > 100 µM | SNB-75 > 100 µM | DU-145 > 100 µM
> 100 µM: HCT-15

COc1cc(/C=C/C=C2\CC/C(=C\C=C\c3ccc(O)c(OC)c3)C2=O)ccc1O
> 100 µM: HCT-15
active: MOLT-4 1.02 µM
inactive: RXF 393 3.87 µM | T47D > 100 µM | LOX IMVI > 100 µM | RPMI-8226 57.3 µM | MDA-MB-231 > 59.7 µM | KM12 > 100 µM | HL-60 7.41 µM | CAKI-1 > 100 µM | A549 > 100 µM | OVCAR-4 > 60.1 µM | NCI-H226 > 100 µM | IGROV-1 > 100 µM | SNB-19 > 100 µM | EKVX > 97.3 µM | SN12C > 100 µM | MDA-N > 100 µM | SNB-75 > 100 µM | DU-145 > 100 µM

Cc1ccc(C2NC(=O)c3ccccc3N2)c(C)c1 (stereo not given)
1.08 µM: HCT-15
inactive: RXF 393 3.91 µM | T47D 6.01 µM | LOX IMVI 4.76 µM | MDA-MB-231 7.4 µM | KM12 3.21 µM | CAKI-1 2.56 µM | A549 5.65 µM | OVCAR-4 2.68 µM | NCI-H226 6.1 µM | IGROV-1 4.62 µM | SNB-19 3.96 µM | EKVX 8.17 µM | SN12C 6.9 µM | SNB-75 1.92 µM | DU-145 5.71 µM
active: RPMI-8226 0.807 µM | HL-60 0.453 µM | MOLT-4 0.736 µM | MDA-N 0.174 µM
